pEC50: −log10 of the molar value.
Columns and labels:
[1] = in vitro; conditions: monkey, Vero cells
[2] = test system: Junin virus; format: functional, organism-based; conditions: Mammarenavirus juninense, IV4454, A549, 48 h
[3] = Cytotoxicity against African green monkey Vero cells assessed as reduction in cell viability after 48 hrs by MTT assay; format: cell-based; conditions: chlorocebus sabaeus
[4] = in vitro; conditions: human, A549 cells
[5] = test system: Junin virus; format: functional, organism-based; conditions: Mammarenavirus juninense, IV4454, Vero, 48 h
[6] = Cytotoxicity against human A549 cells assessed as reduction in cell viability after 48 hrs by MTT assay; format: cell-based
[7] = Solubility of the compound in water; format: physicochemical

Row | Structure (SMILES) | selectivity ratio [1] | pEC50 [2] | CC50 at 48 h [3] | selectivity ratio [4] | pEC50 [5] | CC50 at 48 h [6] | solubility [7]
1 | OCc1cn([C@@H]2O[C@H](CO)[C@@H](O)[C@H]2O)nn1 | > 4.7 | 4.29 | > 1000 µM | > 19.7 | 3.67 | > 1000 µM | –
2 | CC1(C)O[C@@H]2[C@H](O1)[C@@H](Cn1cc(COC[C@H]3OC(O)[C@H](O)[C@@H](O)[C@H]3O)nn1)O[C@H]2n1cc(COCC(COCc2cn([C@@H]3O[C@H](Cn4cc(COC[C@H]5OC(O)[C@H](O)[C@@H](O)[C@H]5O)nn4)[C@H]4OC(C)(C)O[C@H]43)nn2)(COCc2cn([C@@H]3O[C@H](Cn4cc(COC[C@H]5OC(O)[C@H](O)[C@@H](O)[C@H]5O)nn4)[C@H]4OC(C)(C)O[C@H]43)nn2)COCc2cn([C@@H]3O[C@H](Cn4cc(COC[C@H]5OC(O)[C@H](O)[C@@H](O)[C@H]5O)nn4)[C@H]4OC(C)(C)O[C@H]43)nn2)nn1 (stereo partly drawn) | > 8.6 | 3.92 | > 1000 µM | > 8.4 | 3.93 | > 1000 µM | > 100 mg/mL
3 | CCCCn1cc(COC[C@@H](O)[C@H](O)[C@H](O)[C@@H](O)CO)nn1 | – | < 3.30 | > 1000 µM | – | < 3.30 | > 1000 µM | > 100 mg/mL
4 | CCCCn1cc(COC[C@H]2OC(O)[C@H](O)[C@@H](O)[C@H]2O)nn1 (stereo partly drawn) | > 2.7 | 3.95 | > 1000 µM | > 8.9 | 3.43 | > 1000 µM | > 100 mg/mL
5 | CC1(C)O[C@@H]2[C@H](O1)[C@@H](Cn1cc(COC[C@@H](O)[C@H](O)[C@H](O)[C@@H](O)CO)nn1)O[C@H]2n1cc(COCC(COCc2cn([C@@H]3O[C@H](Cn4cc(COC[C@@H](O)[C@H](O)[C@H](O)[C@@H](O)CO)nn4)[C@H]4OC(C)(C)O[C@H]43)nn2)(COCc2cn([C@@H]3O[C@H](Cn4cc(COC[C@H](O)[C@@H](O)[C@@H](O)[C@H](O)CO)nn4)[C@H]4OC(C)(C)O[C@H]43)nn2)COCc2cn([C@@H]3O[C@H](Cn4cc(COC[C@H](O)[C@@H](O)[C@@H](O)[C@H](O)CO)nn4)[C@H]4OC(C)(C)O[C@H]43)nn2)nn1 | – | < 3.30 | > 1000 µM | – | < 3.30 | > 1000 µM | > 100 mg/mL
6 | OC[C@@H](O)[C@H](O)[C@H](O)[C@@H](O)COCc1cn(CC(Cn2cc(COC[C@@H](O)[C@H](O)[C@H](O)[C@@H](O)CO)nn2)(Cn2cc(COC[C@@H](O)[C@H](O)[C@H](O)[C@@H](O)CO)nn2)Cn2cc(COC[C@@H](O)[C@H](O)[C@H](O)[C@@H](O)CO)nn2)nn1 | – | < 3.30 | > 1000 µM | – | < 3.30 | > 1000 µM | > 100 mg/mL
7 | CC(=O)OC[C@H]1O[C@@H](n2cc(COCC(COCc3cn([C@@H]4O[C@H](COC(C)=O)[C@@H](OC(C)=O)[C@H]4OC(C)=O)nn3)(COCc3cn([C@@H]4O[C@H](COC(C)=O)[C@@H](OC(C)=O)[C@H]4OC(C)=O)nn3)COCc3cn([C@@H]4O[C@H](COC(C)=O)[C@@H](OC(C)=O)[C@H]4OC(C)=O)nn3)nn2)[C@H](OC(C)=O)[C@@H]1OC(C)=O | – | < 3.30 | > 1000 µM | – | < 3.30 | > 1000 µM | –
8 | CC1(C)O[C@@H]2[C@H](O1)[C@@H](CO)O[C@H]2n1cc(CO)nn1 | > 19.5 | 4.06 | > 1000 µM | > 11.6 | 4.29 | > 1000 µM | –
9 | CC1(C)O[C@H]2[C@H](OCc3cn(CC(Cn4cc(CO[C@@H]5O[C@H](Cn6cc(COC[C@@H](O)[C@H](O)[C@H](O)[C@@H](O)CO)nn6)[C@H]6OC(C)(C)O[C@@H]56)nn4)(Cn4cc(CO[C@@H]5O[C@H](Cn6cc(COC[C@H](O)[C@@H](O)[C@@H](O)[C@H](O)CO)nn6)[C@H]6OC(C)(C)O[C@@H]56)nn4)Cn4cc(CO[C@@H]5O[C@H](Cn6cc(COC[C@H](O)[C@@H](O)[C@@H](O)[C@H](O)CO)nn6)[C@H]6OC(C)(C)O[C@@H]56)nn4)nn3)O[C@H](Cn3cc(COC[C@@H](O)[C@H](O)[C@H](O)[C@@H](O)CO)nn3)[C@H]2O1 | – | 3.50 | > 1000 µM | > 3.2 | < 3.30 | > 1000 µM | > 100 mg/mL
10 | CCCCn1cc(CO[C@@H]2O[C@H](CN=[N+]=[N-])[C@H]3OC(C)(C)O[C@@H]23)nn1 | 57.9 | 4.87 | 762 µM | 38.5 | 4.88 | 525 µM | –
11 | CC(=O)OC[C@H]1O[C@@H](n2cc(CO)nn2)[C@H](OC(C)=O)[C@@H]1OC(C)=O | > 7.7 | 3.49 | > 1000 µM | > 3.1 | 3.89 | > 1000 µM | –
12 | CCCCn1cc(CO[C@@H]2O[C@H](CO)[C@H]3OC(C)(C)O[C@@H]23)nn1 | > 17.5 | 4.25 | > 1000 µM | > 17.9 | 4.24 | > 1000 µM | –
13 | OC1O[C@H](COCc2cn(CC(Cn3cc(COC[C@H]4OC(O)[C@H](O)[C@@H](O)[C@H]4O)nn3)(Cn3cc(COC[C@H]4OC(O)[C@H](O)[C@@H](O)[C@H]4O)nn3)Cn3cc(COC[C@H]4OC(O)[C@H](O)[C@@H](O)[C@H]4O)nn3)nn2)[C@H](O)[C@H](O)[C@H]1O (stereo partly drawn) | > 2.7 | 3.50 | > 1000 µM | > 3.2 | 3.43 | > 1000 µM | > 100 mg/mL
14 | CC1(C)O[C@H]2[C@H](OCc3cn(CC(Cn4cc(CO[C@@H]5O[C@H](CO)[C@H]6OC(C)(C)O[C@@H]56)nn4)(Cn4cc(CO[C@@H]5O[C@H](CO)[C@H]6OC(C)(C)O[C@@H]56)nn4)Cn4cc(CO[C@@H]5O[C@H](CO)[C@H]6OC(C)(C)O[C@@H]56)nn4)nn3)O[C@H](CO)[C@H]2O1 | 6.5 | 4.48 | 233 µM | 6.2 | 4.45 | 209 µM | –
15 | CC1(C)O[C@H]2[C@H](OCc3cn(CC(Cn4cc(CO[C@@H]5O[C@H](Cn6cc(COC[C@H]7OC(O)[C@H](O)[C@@H](O)[C@H]7O)nn6)[C@H]6OC(C)(C)O[C@@H]56)nn4)(Cn4cc(CO[C@@H]5O[C@H](Cn6cc(COC[C@H]7OC(O)[C@H](O)[C@@H](O)[C@H]7O)nn6)[C@H]6OC(C)(C)O[C@@H]56)nn4)Cn4cc(CO[C@@H]5O[C@H](Cn6cc(COC[C@H]7OC(O)[C@H](O)[C@@H](O)[C@H]7O)nn6)[C@H]6OC(C)(C)O[C@@H]56)nn4)nn3)O[C@H](Cn3cc(COC[C@H]4OC(O)[C@H](O)[C@@H](O)[C@H]4O)nn3)[C@H]2O1 (stereo partly drawn) | – | < 3.30 | > 1000 µM | – | < 3.30 | > 1000 µM | > 100 mg/mL
16 | CCCCn1cc(CO[C@@H]2O[C@H](Cn3cc(COC[C@@H](O)[C@H](O)[C@H](O)[C@@H](O)CO)nn3)[C@H]3OC(C)(C)O[C@@H]23)nn1 | > 4.8 | 3.41 | > 1000 µM | > 2.6 | 3.68 | > 1000 µM | > 100 mg/mL
17 | OC[C@H]1O[C@@H](n2cc(COCC(COCc3cn([C@@H]4O[C@H](CO)[C@@H](O)[C@H]4O)nn3)(COCc3cn([C@@H]4O[C@H](CO)[C@@H](O)[C@H]4O)nn3)COCc3cn([C@@H]4O[C@H](CO)[C@@H](O)[C@H]4O)nn3)nn2)[C@H](O)[C@@H]1O | – | < 3.30 | > 1000 µM | – | < 3.30 | > 1000 µM | –
18 | CC1(C)O[C@@H]2[C@H](O1)[C@@H](CO)O[C@H]2n1cc(COCC(COCc2cn([C@@H]3O[C@H](CO)[C@H]4OC(C)(C)O[C@H]43)nn2)(COCc2cn([C@@H]3O[C@H](CO)[C@H]4OC(C)(C)O[C@H]43)nn2)COCc2cn([C@@H]3O[C@H](CO)[C@H]4OC(C)(C)O[C@H]43)nn2)nn1 | – | < 3.30 | > 1000 µM | – | < 3.30 | > 1000 µM | –
19 | CCCCn1cc(CO[C@@H]2O[C@H](Cn3cc(COC[C@H]4OC(O)[C@H](O)[C@@H](O)[C@H]4O)nn3)[C@H]3OC(C)(C)O[C@@H]23)nn1 (stereo partly drawn) | > 45.2 | 4.69 | > 1000 µM | > 48.5 | 4.66 | > 1000 µM | > 100 mg/mL
20 | CC1(C)O[C@H]2[C@H](OCc3cn(CC(Cn4cc(CO[C@@H]5O[C@H](CN=[N+]=[N-])[C@H]6OC(C)(C)O[C@@H]56)nn4)(Cn4cc(CO[C@@H]5O[C@H](CN=[N+]=[N-])[C@H]6OC(C)(C)O[C@@H]56)nn4)Cn4cc(CO[C@@H]5O[C@H](CN=[N+]=[N-])[C@H]6OC(C)(C)O[C@@H]56)nn4)nn3)O[C@H](CN=[N+]=[N-])[C@H]2O1 (stereo partly drawn) | – | < 3.30 | > 1000 µM | – | < 3.30 | > 1000 µM | –
21 | NC(=O)c1ncn([C@@H]2O[C@H](CO)[C@@H](O)[C@H]2O)n1 [RIBAVIRIN] | > 21.6 | 4.72 | > 400 µM | 15.9 | – | 307 µM | –

From ChEMBL document CHEMBL4330122, “Modified ribavirin analogues as antiviral agents against Junín virus” (Bioorg Med Chem Lett, 2019)
